Columns and labels:
IGF-1R = biological target: T1, IGF-1R (Homo sapiens, UniProt P08069); test: Z`-LYTE kinase profiling, IGF-1R; type: biochemical
T1 construct: purchased Invitrogen/Life Technologies

FAK = FAK (Homo sapiens, UniProt Q05397); test: Z`-LYTE kinase inhibitory assay, FAK
BTK = biological target: T2, BTK (Homo sapiens, UniProt Q06187); test: Z`-LYTE kinase profiling, BTK; type: biochemical
T2 construct: purchased Invitrogen/Life Technologies

FRK = biological target: T3, FRK (Homo sapiens, UniProt P42685); test: Z`-LYTE kinase profiling, FRK; type: biochemical
T3 construct: purchased Invitrogen/Life Technologies

[1] = test system: DLD-1 colorectal cancer cell line; test: MTT antiproliferative assay, DLD-1; settings: for GI% DLD1: 10 µM, 24 h, MTT; for IC50: Homo sapiens, DLD-1, 24 h, read-out: IC50 DLD1 (half maximal growth inhibitory concentration)
Protocol: (§2) After the incubation of the tested compounds for 24 h, the percent growth inhibition (GI%) was calculated.
(§3) Cells were seeded at 1 × 10^4 cells/well and cultured overnight in a 96-well plate. […] Then, 150 µl DMSO was used to solubilise MTT formazan crystals. Finally, the plates were shaken, and the optical density was determined at 570 nm using ELISA plate reader. At least, three independent experiments were performed. Percentage of growth inhibition was determined as (1-[OD of treated cells/OD of control cells]). […] The IC50 values were calculated using Prism v0.8 software (GraphPad Software Inc., La Jolla, CA).

recombinant human TOP1 = biological target: T4, recombinant human TOP1 (Homo sapiens, UniProt P11387); test: Topoisomerase I-mediated DNA cleavage assay; settings: tested at 0.1, 1, 10, 100 µM
T4 sequence (P11387 1-765): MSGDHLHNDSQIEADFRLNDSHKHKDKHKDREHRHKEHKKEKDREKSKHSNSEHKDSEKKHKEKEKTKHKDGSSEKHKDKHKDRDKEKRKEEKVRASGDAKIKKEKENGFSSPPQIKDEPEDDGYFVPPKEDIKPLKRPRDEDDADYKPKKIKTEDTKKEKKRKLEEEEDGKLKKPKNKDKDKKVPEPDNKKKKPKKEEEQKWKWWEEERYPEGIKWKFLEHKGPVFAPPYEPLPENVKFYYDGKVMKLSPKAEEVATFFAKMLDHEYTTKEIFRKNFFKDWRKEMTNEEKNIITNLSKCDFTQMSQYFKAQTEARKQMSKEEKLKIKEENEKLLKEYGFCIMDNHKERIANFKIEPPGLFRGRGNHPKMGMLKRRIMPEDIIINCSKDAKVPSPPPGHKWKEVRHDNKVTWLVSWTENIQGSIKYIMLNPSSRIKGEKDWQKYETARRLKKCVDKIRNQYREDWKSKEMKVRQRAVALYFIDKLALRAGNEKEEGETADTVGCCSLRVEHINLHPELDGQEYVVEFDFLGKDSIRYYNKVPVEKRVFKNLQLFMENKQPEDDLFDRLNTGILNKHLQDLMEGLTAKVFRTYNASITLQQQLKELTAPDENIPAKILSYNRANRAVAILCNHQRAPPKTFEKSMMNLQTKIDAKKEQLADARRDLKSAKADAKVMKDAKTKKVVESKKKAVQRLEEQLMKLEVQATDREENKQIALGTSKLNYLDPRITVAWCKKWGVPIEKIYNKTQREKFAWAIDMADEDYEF
Protocol: Radiolabeled DNA was incubated with recombinant human TOP1 in 20 µL reaction buffer (10 mmol/L Tris-HCl, pH 7.5, 50 mmol/L KCl, 5 mmol/L MgCl2, 0.1 mmol/L EDTA, and 15 µg/mL BSA) at 30 °C for 20 min in the presence of the indicated drug concentrations. Reactions were terminated by adding SDS (0.5% final concentration) followed by the addition of two volumes of loading dye (80% formamide, 10 mmol/L sodium hydroxide, 1 mmol/L sodium EDTA, 0.1% xylene cyanol, and 0.1% bromophenol blue). Aliquots of reaction mixtures were subjected to 20% denaturing PAGE. Gels were dried and visualised by using PhosphorImager and Image Quant software (Molecular Dynamics).

HER-2 = biological target: T5, HER-2 (Homo sapiens, UniProt P04626); test: Z`-LYTE kinase profiling, HER-2; type: biochemical
T5 construct: purchased Invitrogen/Life Technologies

c-Src = biological target: T6, c-Src (Homo sapiens, UniProt P12931); test: Z`-LYTE kinase profiling, c-Src; type: biochemical
T6 construct: purchased Invitrogen/Life Technologies

VEGFR-2 = biological target: T7, VEGFR-2 (Homo sapiens, UniProt P35968); test: Z`-LYTE kinase profiling, VEGFR-2; type: biochemical
T7 construct: purchased Invitrogen/Life Technologies
T7 sequence (P35968 20-1356): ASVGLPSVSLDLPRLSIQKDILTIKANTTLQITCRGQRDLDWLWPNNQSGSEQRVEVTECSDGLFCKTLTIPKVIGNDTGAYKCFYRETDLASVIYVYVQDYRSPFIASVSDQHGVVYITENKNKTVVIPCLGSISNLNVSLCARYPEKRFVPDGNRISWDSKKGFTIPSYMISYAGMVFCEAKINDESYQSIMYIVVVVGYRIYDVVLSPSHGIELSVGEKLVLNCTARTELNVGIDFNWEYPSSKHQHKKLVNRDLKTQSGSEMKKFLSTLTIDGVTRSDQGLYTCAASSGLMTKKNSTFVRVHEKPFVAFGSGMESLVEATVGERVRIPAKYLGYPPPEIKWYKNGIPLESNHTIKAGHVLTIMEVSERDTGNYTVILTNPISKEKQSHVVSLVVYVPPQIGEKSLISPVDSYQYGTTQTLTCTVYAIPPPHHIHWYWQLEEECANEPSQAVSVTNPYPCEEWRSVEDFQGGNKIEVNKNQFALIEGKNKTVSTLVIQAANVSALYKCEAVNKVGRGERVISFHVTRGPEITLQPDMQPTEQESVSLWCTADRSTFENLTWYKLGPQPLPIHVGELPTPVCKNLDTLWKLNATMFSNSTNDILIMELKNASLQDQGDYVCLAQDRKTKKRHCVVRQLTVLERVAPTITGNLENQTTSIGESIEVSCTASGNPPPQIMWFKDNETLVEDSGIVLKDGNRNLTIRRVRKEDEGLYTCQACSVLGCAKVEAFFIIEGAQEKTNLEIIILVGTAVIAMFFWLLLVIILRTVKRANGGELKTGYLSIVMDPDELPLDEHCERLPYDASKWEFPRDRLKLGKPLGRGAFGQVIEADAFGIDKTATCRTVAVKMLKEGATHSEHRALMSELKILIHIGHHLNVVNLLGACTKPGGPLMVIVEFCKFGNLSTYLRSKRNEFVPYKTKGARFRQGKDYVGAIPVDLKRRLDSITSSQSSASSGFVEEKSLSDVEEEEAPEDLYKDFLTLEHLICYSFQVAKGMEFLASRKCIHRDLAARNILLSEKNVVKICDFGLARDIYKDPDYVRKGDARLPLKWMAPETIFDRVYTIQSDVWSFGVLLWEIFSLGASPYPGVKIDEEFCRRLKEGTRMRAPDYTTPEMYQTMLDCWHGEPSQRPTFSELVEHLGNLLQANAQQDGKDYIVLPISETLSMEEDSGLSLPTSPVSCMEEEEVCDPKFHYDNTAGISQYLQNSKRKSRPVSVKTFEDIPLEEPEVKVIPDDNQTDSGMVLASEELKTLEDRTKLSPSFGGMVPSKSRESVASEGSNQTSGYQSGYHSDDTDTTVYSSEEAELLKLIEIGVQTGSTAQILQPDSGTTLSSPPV

VEGFR-1 = biological target: T8, VEGFR-1 (Homo sapiens, UniProt P17948); test: Z`-LYTE kinase profiling, VEGFR-1; type: biochemical
T8 construct: purchased Invitrogen/Life Technologies

EGFR = EGFR (Homo sapiens, UniProt P00533); test: Z`-LYTE kinase inhibitory assay, EGFR
Sequence of EGFR (P00533 25-1210): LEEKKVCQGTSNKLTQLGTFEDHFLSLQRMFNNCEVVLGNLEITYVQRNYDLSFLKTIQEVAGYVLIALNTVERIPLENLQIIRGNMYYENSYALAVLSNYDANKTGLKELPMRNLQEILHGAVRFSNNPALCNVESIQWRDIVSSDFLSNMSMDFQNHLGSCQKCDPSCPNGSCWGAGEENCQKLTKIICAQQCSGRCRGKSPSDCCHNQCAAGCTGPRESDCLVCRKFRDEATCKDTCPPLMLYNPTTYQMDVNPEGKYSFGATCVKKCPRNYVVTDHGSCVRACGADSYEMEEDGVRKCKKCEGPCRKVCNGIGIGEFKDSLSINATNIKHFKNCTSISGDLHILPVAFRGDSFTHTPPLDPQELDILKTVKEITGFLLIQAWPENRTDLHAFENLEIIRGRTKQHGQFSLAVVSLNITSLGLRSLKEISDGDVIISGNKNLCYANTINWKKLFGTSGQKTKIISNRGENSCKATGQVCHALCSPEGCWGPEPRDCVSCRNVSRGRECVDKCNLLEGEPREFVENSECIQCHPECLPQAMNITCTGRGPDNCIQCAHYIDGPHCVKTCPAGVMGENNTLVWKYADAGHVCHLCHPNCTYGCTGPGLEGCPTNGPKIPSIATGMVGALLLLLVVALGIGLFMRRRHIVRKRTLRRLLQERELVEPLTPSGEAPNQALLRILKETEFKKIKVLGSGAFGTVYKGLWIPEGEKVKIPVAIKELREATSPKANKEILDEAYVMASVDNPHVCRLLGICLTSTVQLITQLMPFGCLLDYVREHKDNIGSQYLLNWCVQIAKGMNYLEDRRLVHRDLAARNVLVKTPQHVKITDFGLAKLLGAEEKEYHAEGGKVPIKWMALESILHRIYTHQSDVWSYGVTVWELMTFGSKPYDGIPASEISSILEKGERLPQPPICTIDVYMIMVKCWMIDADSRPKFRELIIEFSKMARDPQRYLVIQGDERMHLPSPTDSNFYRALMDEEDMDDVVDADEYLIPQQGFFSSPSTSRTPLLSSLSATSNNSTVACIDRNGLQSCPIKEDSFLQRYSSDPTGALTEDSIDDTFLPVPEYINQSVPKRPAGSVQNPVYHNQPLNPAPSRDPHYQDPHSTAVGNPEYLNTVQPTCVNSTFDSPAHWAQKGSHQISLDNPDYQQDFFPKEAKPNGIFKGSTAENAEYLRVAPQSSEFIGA

[2] = test system: MDMBA-231 breast cancer cell line; test: MTT antiproliferative assay, MDMBA-231; type: cell-based; settings: 10 µM, 24 h
Protocol: (§1) At least, three independent experiments were performed.

[3] = test system: HCT-116 colorectal cancer cell line; test: MTT antiproliferative assay, HCT-116; settings: for GI% HCT-116: 10 µM, 24 h, MTT; for IC50: Homo sapiens, HCT-116, 24 h, read-out: IC50 HCT-116 (half maximal growth inhibitory concentration)
Protocol: as §2, §3

[4] = test system: HeLa cervical cancer cell line; test: MTT antiproliferative assay, HeLa; type: cell-based; settings: 10 µM, 24 h
Protocol: as §1

[5] = test system: MCF-7 breast cancer cell line; test: MTT antiproliferative assay, MCF-7; type: cell-based; settings: 10 µM, 24 h
Protocol: as §1

T1 sequence (P08069 31-1367): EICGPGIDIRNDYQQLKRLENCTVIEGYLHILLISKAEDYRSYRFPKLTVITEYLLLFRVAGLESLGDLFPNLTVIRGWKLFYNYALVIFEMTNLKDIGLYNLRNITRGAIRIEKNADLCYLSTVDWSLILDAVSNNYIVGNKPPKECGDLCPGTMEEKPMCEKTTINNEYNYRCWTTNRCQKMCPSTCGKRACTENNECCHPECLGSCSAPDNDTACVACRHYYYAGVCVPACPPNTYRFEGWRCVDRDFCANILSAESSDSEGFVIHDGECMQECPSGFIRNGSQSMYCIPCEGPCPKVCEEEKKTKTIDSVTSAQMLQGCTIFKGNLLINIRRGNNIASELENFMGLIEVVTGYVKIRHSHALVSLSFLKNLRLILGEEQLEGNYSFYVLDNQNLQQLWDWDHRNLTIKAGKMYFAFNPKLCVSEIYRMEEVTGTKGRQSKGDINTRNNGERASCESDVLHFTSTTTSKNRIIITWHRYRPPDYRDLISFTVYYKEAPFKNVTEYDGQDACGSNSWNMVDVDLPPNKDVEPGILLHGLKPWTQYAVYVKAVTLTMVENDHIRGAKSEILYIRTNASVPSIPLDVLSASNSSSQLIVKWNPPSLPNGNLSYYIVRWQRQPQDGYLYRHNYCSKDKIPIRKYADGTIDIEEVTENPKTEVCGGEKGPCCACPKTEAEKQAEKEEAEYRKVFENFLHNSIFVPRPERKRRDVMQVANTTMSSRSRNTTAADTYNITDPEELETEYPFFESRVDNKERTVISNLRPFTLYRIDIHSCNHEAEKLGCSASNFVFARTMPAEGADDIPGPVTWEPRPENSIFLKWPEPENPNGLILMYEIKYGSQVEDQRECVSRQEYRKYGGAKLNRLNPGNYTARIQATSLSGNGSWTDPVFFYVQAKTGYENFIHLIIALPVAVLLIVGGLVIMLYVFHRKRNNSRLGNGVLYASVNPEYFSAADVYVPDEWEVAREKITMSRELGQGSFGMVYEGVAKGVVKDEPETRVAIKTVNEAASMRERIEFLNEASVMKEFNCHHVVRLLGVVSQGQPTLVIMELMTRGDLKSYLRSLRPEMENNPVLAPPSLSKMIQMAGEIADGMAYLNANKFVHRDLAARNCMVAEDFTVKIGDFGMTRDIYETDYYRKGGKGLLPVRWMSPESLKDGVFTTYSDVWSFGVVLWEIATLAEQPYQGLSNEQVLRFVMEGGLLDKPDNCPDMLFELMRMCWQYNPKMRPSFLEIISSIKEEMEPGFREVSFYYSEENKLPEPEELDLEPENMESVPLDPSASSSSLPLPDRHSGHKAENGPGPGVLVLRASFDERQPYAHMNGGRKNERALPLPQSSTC
Sequence of FAK (Q05397 whole entry): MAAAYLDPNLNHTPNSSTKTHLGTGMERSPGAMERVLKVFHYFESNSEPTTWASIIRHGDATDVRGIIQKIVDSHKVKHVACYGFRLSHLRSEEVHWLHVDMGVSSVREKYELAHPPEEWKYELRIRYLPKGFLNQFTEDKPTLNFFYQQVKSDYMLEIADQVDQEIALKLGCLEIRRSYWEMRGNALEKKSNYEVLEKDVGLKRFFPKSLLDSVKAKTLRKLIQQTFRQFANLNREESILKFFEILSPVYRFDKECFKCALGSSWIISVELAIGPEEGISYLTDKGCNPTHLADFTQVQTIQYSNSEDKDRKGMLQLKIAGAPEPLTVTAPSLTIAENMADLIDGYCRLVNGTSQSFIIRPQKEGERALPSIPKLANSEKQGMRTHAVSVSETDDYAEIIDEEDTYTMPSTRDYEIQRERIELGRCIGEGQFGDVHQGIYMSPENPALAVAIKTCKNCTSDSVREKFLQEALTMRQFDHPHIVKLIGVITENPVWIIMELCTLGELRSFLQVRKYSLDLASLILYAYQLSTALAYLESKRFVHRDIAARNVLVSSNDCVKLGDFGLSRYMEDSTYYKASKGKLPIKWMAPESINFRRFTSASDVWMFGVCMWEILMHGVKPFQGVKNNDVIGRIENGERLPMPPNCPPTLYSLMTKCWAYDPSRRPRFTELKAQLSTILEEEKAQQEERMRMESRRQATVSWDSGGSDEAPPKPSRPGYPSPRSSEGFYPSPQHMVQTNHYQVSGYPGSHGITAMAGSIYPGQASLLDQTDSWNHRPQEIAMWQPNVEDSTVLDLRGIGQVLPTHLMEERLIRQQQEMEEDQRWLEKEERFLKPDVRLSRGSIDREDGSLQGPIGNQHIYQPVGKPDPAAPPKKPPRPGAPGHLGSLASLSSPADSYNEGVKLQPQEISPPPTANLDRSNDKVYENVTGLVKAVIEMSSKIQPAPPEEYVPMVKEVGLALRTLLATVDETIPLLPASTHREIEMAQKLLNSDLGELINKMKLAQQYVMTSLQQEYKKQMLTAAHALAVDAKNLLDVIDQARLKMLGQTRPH

Structure (SMILES) | melting point [°C] | IC50 (IGF-1R) [nM] | IC50 (FAK) [nM] | IC50 (BTK) [nM] | IC50 (FRK) [nM] | GI% DLD1 [1] [%] | IC50 [1] [nM] | TOP1 inhibitory activity (semiquantitative score relative to 1 µM CPT) (recombinant human TOP1) | IC50 (HER-2) [nM] | IC50 (c-Src) [nM] | IC50 (VEGFR-2) [nM] | IC50 (VEGFR-1) [nM] | IC50 (EGFR) [nM] | GI% MDMBA-231 [2] [%] | GI% HCT-116 [3] [%] | IC50 [3] [nM] | GI% Hela [4] [%] | GI% MCF-7 [5] [%] | fold decreased activity than Gefitinib, EGFR (EGFR; from IC50 values) [fold]
COc1cc2nc(-c3ccc(C)cc3)cc(OCCCNC3CCN(C)CC3)c2cc1OC [6m, N-(3-((6,7-dimethoxy-2-(p-tolyl)quinolin-4-yl)oxy)propyl)-1-methylpiperidin-4-amine] | 66 to 68 | 2810 | 172 ± 13.7 | 2460 | 2760 | 22.16 | 54200 ± 2110 | −/+ (−/+: 0–25% 1 µM CPT) | 332 | 980 | 2830 | 865 | 154 ± 12.8 | 8.16 | 24.31 | 43100 ± 1050 | 30.19 | 22.09 | –
COc1cc2nc(-c3ccc(C)cc3)cc(OCCCNCC3CCCO3)c2cc1OC (stereo not shown) [6n, 3-((6,7-dimethoxy-2-(p-tolyl)quinolin-4-yl)oxy)-N-((tetrahydrofuran-2-yl)methyl)propa-n-1-amine] | 60 to 62 | 2810 | 44.4 ± 2.94 | 819 | 2520 | 81.34 | 6110 ± 1800 | 0 | 1390 | 82.7 | 1190 | 556 | 41.8 ± 2.34 | 14.39 | 64.26 | 8690 ± 940 | 71.12 | 58.15 | –
COc1cc2nc(-c3ccc(C)cc3)cc(OCCCn3ccnc3)c2cc1OC [6o, 4-(3-(1H-imidazol-1-yl)propoxy)-6,7-dimethoxy-2-(p-tolyl)quinoline] | 203 to 205 | 408 | 205 ± 8.04 | 3830 | 786 | 12.36 | > 100000 | 0 | 1380 | 3490 | 3620 | 511 | 256 ± 6.94 | 8.64 | 1.08 | > 100000 | 9.16 | 5.36 | –
COc1cc2nc(-c3ccc(-c4ccco4)cc3)cc(OCCCN3CCN(C)CC3)c2cc1OC [8a, 2-(4-(furan-2-yl)phenyl)-6,7-dimethoxy-4-(3-(4-methylpiperazin-1-yl)propoxy)quinoline] | 135 to 137 | 1060 | 198 ± 12.3 | 5600 | 846 | 5.15 | > 100000 | 0 | 989 | 4540 | 6370 | 648 | 349 ± 14 | 4.40 | 1.02 | > 100000 | 11.78 | 7.22 | –
COc1cc2nc(-c3ccc(-c4cccs4)cc3)cc(OCCCN3CCN(C)CC3)c2cc1OC [8b, 6,7-dimethoxy-4–(3-(4-methylpiperazin-1-yl)propoxy)-2–(4-(thiophen-2-yl)phenyl)quinol-ine] | 155 to 157 | 3900 | 29.8 ± 2.37 | 2920 | 3920 | 74.25 | 7340 ± 1220 | 0 | 1070 | 7200 | 8370 | 6960 | 35.5 ± 1.5 | 36.87 | 52.10 | 9840 ± 680 | 50.81 | 74.90 | –
CN1CCN(CCCOc2cc(-c3ccc(C(F)(F)F)cc3)nc3ccccc23)CC1 [10a, 4-(3-(4-methylpiperazin-1-yl)propoxy)-2-(4-(trifluoromethyl)phenyl)quinoline] | 110 to 112 | 198 | 298.7 ± 1.94 | 4760 | 8910 | 22.51 | > 100000 | 0 | 1020 | 1030 | 8550 | 4390 | 244 ± 8.41 | 37.15 | 18.64 | > 100000 | 25.64 | 14.26 | –
FC(F)(F)c1ccc(-c2cc(OCCCNC3CCCCC3)c3ccccc3n2)cc1 [10b, N-(3-((2-(4-(trifluoromethyl)phenyl)quinolin-4-yl)oxy)propyl)cyclohexanamine] | 68 to 70 | 5740 | 165 ± 5.37 | 2980 | 4370 | 35.72 | 40300 ± 2090 | 0 | 598 | 7780 | 8680 | 8510 | 180 ± 9.12 | 45.35 | 24.10 | > 100000 | 55.49 | 64.81 | –
Clc1ccc(-c2cc(OCCCn3ccnc3)c3cc4c(cc3n2)OCO4)cc1 [12a, 8-(3-(1H-imidazol-1-yl)propoxy)-6-(4-chlorophenyl)-[1,3] dioxolo[4,5-g]quinoline] | 146 to 148 | 5370 | 225 ± 14 | 196 | 734 | 21.25 | > 100000 | −/+ (−/+: 0–25% 1 µM CPT) | 34.8 | 55.3 | 48.3 | 1760 | 125 ± 7.94 | 4.98 | 16.25 | > 100000 | 22.79 | 11.72 | –
Clc1ccc(-c2cc(OCCCN3CCOCC3)c3cc4c(cc3n2)OCO4)cc1 [12b, 6-(4-chlorophenyl)-8-(3-morpholinopropoxy)-[1,3]dioxolo [4,5-g]quinoline] | 153 to 155 | 7160 | 70.9 ± 3.16 | 213 | 1130 | 72.95 | 8360 ± 1080 | −/+ (−/+: 0–25% 1 µM CPT) | 27.3 | 42.3 | 27 | 5990 | 95.4 ± 2.05 | 14.28 | 31.28 | 14400 ± 3690 | 25.39 | 64.38 | 2
FC(F)(F)c1ccc(-c2cc(OCCCn3ccnc3)c3cc4c(cc3n2)OCO4)cc1 [12c, 8-(3-(1H-imidazol-1-yl)propoxy)-6-(4-(trifluoromethyl)phenyl)-[1,3]dioxolo[4,5-g]qui-noline] | 125 to 127 | 9000 | 111 ± 8.94 | 99.5 | 4880 | 71.94 | 9120 ± 2110 | 0 | 169 | 119 | 56.9 | 7720 | 247 ± 12.3 | 61.94 | 80.49 | 6370 ± 1090 | 68.22 | 43.27 | –

— publication PMC8725837, “2-Arylquinolines as novel anticancer agents with dual EGFR/FAK kinase inhibitory activity: synthesis, biological evaluation, and molecular modelling insights” (Journal of Enzyme Inhibition and Medicinal Chemistry, 2021)
